Assay results taken from ChEMBL document CHEMBL1131554, “10-omega-phenylalkyl-9(10H)-anthracenones as inhibitors of keratinocyte growth with reduced membrane damaging properties” (Bioorg Med Chem Lett, 1998).

Tests used:
[1] = Deoxyribose degradation as a measure of hydroxyl-radical generation.; format: functional
[2] = In vitro for antiproliferate activity against HaCaT cells; format: functional, cell-based; settings: Homo sapiens
[3] = Partition coefficient (logP); format: physicochemical; settings: octanol/water
[4] = Compound was measured for lactate dehydrogenase (LDH) release in HaCaT cells after treatment with 2 uM; format: functional, Homo sapiens

Row | Compound | logP [3] | Activity (uM of MDA (mM of deoxyribose)-1) [1] | IC50 [2] | LDH [4]
1 | O=C1c2c(O)cccc2C(CCCc2ccccc2)c2cccc(O)c21 | 5.51 | < 0.2 | > 5 µM | 130 MU
2 | COc1ccc(CC2c3cccc(O)c3C(=O)c3c(O)cccc32)cc1 | 4.45 | < 0.2 | > 5 µM | 152 MU
3 | COc1ccc(CCC2c3cccc(O)c3C(=O)c3c(O)cccc32)cc1 | 5.07 | < 0.2 | 0.9 µM | 129 MU
4 | O=C1c2c(O)cccc2C(Cc2ccccc2)c2cccc(O)c21 |  | 0.35 | > 5 µM | 150 MU
5 | O=C1c2c(O)cccc2C(Cc2ccncc2)c2cccc(O)c21 | 3.47 | 1.25 | 1.8 µM | 179 MU
6 | O=C1c2c(O)cccc2Cc2cccc(O)c21 [ANTHRALIN] |  |  | 0.7 µM | 294 MU
7 | O=C1c2c(O)cccc2C(CCc2ccccc2)c2cccc(O)c21 | 5.27 | < 0.2 | < 5 µM | 

Continued, in another order:

Row | logP [3] | Compound | Activity (uM of MDA (mM of deoxyribose)-1) [1] | IC50 [2] | LDH [4]
8 | 4.37 | COc1cc(CCC2c3cccc(O)c3C(=O)c3c(O)cccc32)cc(OC)c1OC | 0.97 | 4.1 µM | 
9 | 4.55 | COc1ccc(CCC2c3cccc(O)c3C(=O)c3c(O)cccc32)cc1OC | < 0.2 | 3 µM | 
10 | 3.09 | O=C1c2c(O)cccc2C(CCc2cc(O)c(O)c(O)c2)c2cccc(O)c21 | 2.3 | > 5 µM | 225 MU
11 | 4.1 | O=C1c2c(O)cccc2C(CCc2ccc(O)cc2)c2cccc(O)c21 | 0.4 | 3.8 µM | 136 MU
12 | 4.2 | COc1ccc(CC(=O)C2c3cccc(O)c3C(=O)c3c(O)cccc32)cc1 | < 0.2 | 1.1 µM | 143 MU
13 | 5.72 | O=C1c2c(O)cccc2C(CCCCc2ccccc2)c2cccc(O)c21 | < 0.2 | < 5 µM | 
14 | 3.65 | O=C1c2c(O)cccc2C(CCc2ccc(O)c(O)c2)c2cccc(O)c21 | 0.56 | > 5 µM | 
15 | 4.16 | O=C1c2c(O)cccc2C(Cc2ccc([N+](=O)[O-])cc2)c2cccc(O)c21 | < 0.2 | < 5 µM | 142 MU
